Values joined by “and” are separate entries in the source; they are usually repeats but may differ in a detail not shown here. Identical values can stand only once. Toxic doses and inconclusive results are not listed.
System: L1210 leukemia ip in BDF1 mice, survival T/C
Assay: NCI In Vivo Anticancer Drug Screen. Data for tumor model L1210 Leukemia (intraperitoneal) in B6D2F1 (BDF1) mice
Conditions: endpoint: mean survival time, higher = longer survival
Procedure, shortened: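 Transplanted-tumor mice were given test agent; controls received vehicle only. Survival readings from the two groups were divided (treated over control).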

[1] = dose: 100.0 mg/kg/injection, schedule: Q01DX001 (ip), vehicle: carboxymethylcellulose (CMC)
[2] = dose: 200.0 mg/kg/injection, schedule: Q01DX001 (ip), vehicle: carboxymethylcellulose (CMC)
[3] = dose: 400.0 mg/kg/injection, schedule: Q01DX001 (ip), vehicle: carboxymethylcellulose (CMC)
[4] = dose: 50.0 mg/kg/injection, schedule: Q01DX009 (ip), vehicle: saline

Clc1ccc2ccc(Cl)cc2c1
T/C [1]: 103 % of control
T/C [2]: 95 % of control
T/C [3]: 94 % of control

O=C(On1c(-c2ccccc2)cc2ccccc21)c1ccc([N+](=O)[O-])cc1
T/C (dose: 100.0 mg/kg/injection, schedule: Q04DX002 (ip), vehicle: Klucel (hydroxypropylcellulose) (HPC)): 104 % of control
T/C (dose: 200.0 mg/kg/injection, schedule: Q04DX002 (ip), vehicle: Klucel (hydroxypropylcellulose) (HPC)): 111 % of control
T/C (dose: 400.0 mg/kg/injection, schedule: Q04DX002 (ip), vehicle: Klucel (hydroxypropylcellulose) (HPC)): 96 % of control

O=C(CCl)c1ccccc1
T/C [1]: 91 % of control
T/C [2]: 95 % of control
T/C [3]: 97 % of control

Cc1n(Cc2ccccc2)cc[n+]1C
T/C (dose: 12.5 mg/kg/injection, schedule: Q01DX009 (ip), vehicle: saline): 109 % of control and 119 % of control
T/C (dose: 12.5 mg/kg/injection, schedule: Q04DX002 (ip), vehicle: saline): 100 % of control and 111 % of control
T/C (dose: 25.0 mg/kg/injection, schedule: Q01DX009 (ip), vehicle: saline): 117 % of control and 119 % of control
T/C (dose: 25.0 mg/kg/injection, schedule: Q04DX002 (ip), vehicle: saline): 100 % of control
T/C [4]: 93 % of control

OC1CC2CC1C1C3C=CC(C3)C21 (centres undefined)
T/C (dose: 6.25 mg/kg/injection, schedule: Q01DX009 (ip), vehicle: saline with Tween-80): 98 % of control
T/C (dose: 12.5 mg/kg/injection, schedule: Q01DX009 (ip), vehicle: saline with Tween-80): 101 % of control
T/C (dose: 25.0 mg/kg/injection, schedule: Q01DX009 (ip), vehicle: saline with Tween-80): 101 % of control

CCCCCCCC(C(C)=O)C(=O)OCC (centres undefined)
T/C (dose: 100.0 mg/kg/injection, schedule: Q01DX001 (ip), vehicle: saline with Tween-80): 95 % of control
T/C (dose: 200.0 mg/kg/injection, schedule: Q01DX001 (ip), vehicle: saline with Tween-80): 103 % of control
T/C (dose: 400.0 mg/kg/injection, schedule: Q01DX001 (ip), vehicle: saline with Tween-80): 95 % of control

CCCCCCCCCc1cc(=O)n(-c2ccc(C(=O)OCC)cc2)n1C
T/C (dose: 12.5 mg/kg/injection, schedule: Q04DX003 (ip), vehicle: Klucel (hydroxypropylcellulose) (HPC)): 105 % of control
T/C (dose: 25.0 mg/kg/injection, schedule: Q04DX003 (ip), vehicle: Klucel (hydroxypropylcellulose) (HPC)): 102 % of control
T/C (dose: 50.0 mg/kg/injection, schedule: Q04DX003 (ip), vehicle: Klucel (hydroxypropylcellulose) (HPC)): 97 % of control

CC(Cl)CN(N=O)C(=O)NC1CCCCC1 (centres undefined)
T/C (dose: 16.0 mg/kg/injection, schedule: Q01DX001 (ip), vehicle: other): 96 % of control
T/C (dose: 31.0 mg/kg/injection, schedule: Q01DX001 (ip), vehicle: other): 104 % of control
T/C (dose: 62.0 mg/kg/injection, schedule: Q01DX001 (ip), vehicle: other): 102 % of control
T/C (dose: 125.0 mg/kg/injection, schedule: Q01DX001 (ip), vehicle: other): 104 % of control
T/C (dose: 187.0 mg/kg/injection, schedule: Q01DX001 (ip), vehicle: other): 117 % of control
T/C (dose: 250.0 mg/kg/injection, schedule: Q01DX001 (ip), vehicle: other): 94 % of control
T/C (dose: 375.0 mg/kg/injection, schedule: Q01DX001 (ip), vehicle: other): 122 % of control
T/C (dose: 500.0 mg/kg/injection, schedule: Q01DX001 (ip), vehicle: other): 167 % of control
T/C (dose: 750.0 mg/kg/injection, schedule: Q01DX001 (ip), vehicle: other): 187 % of control

COc1ccc([N+](=O)[O-])cc1NC(=O)Oc1ccc(SC)cc1
T/C (dose: 50.0 mg/kg/injection, schedule: Q01DX009 (ip), vehicle: Klucel (hydroxypropylcellulose) (HPC)): 111 % of control
T/C (dose: 100.0 mg/kg/injection, schedule: Q01DX009 (ip), vehicle: Klucel (hydroxypropylcellulose) (HPC)): 92 % of control
T/C (dose: 200.0 mg/kg/injection, schedule: Q01DX009 (ip), vehicle: Klucel (hydroxypropylcellulose) (HPC)): 100 % of control

Nc1n[nH]c(N)n1.[Pt]
T/C [4]: 102 % of control
T/C (dose: 50.0 mg/kg/injection, schedule: Q04DX003 (ip), vehicle: saline): 97 % of control
T/C (dose: 100.0 mg/kg/injection, schedule: Q01DX009 (ip), vehicle: saline): 102 % of control
T/C (dose: 100.0 mg/kg/injection, schedule: Q04DX003 (ip), vehicle: saline): 102 % of control
T/C (dose: 200.0 mg/kg/injection, schedule: Q04DX003 (ip), vehicle: saline): 100 % of control

CC1(C)N=C(N)N=C(N)N1c1cccc(OCCCC#N)c1
T/C (dose: 100.0 mg/kg/injection, schedule: Q01DX001 (ip), vehicle: saline): 101 % of control

O=C(c1ccccc1)C1CCC(Cl)CC1 (centres undefined)
T/C (dose: 100.0 mg/kg/injection, schedule: Q01DX001 (ip), vehicle: other): 96 % of control
T/C (dose: 200.0 mg/kg/injection, schedule: Q01DX001 (ip), vehicle: other): 101 % of control
T/C (dose: 400.0 mg/kg/injection, schedule: Q01DX001 (ip), vehicle: other): 102 % of control

Reference: PubChem BioAssay AID248 (DTP/NCI, 2004)
